Patent US20080004180A1, “Novel Herbicides Based on Substituted Thien-3-Yl-Sulphonylamino(Thio) Carbonyl-Triazolin(Thi)Ones and 4-Hppd-Inhibitors” (Bayer Cropscience AG, priority 2004, published 2008)

Legend:
Assay type in all cases: in vivo
Galium aparine = test: Herbicidal action against Galium aparine, single ingredients and combinations, with Colby expected action; settings: Table A-3 (first); application rate 3.75 g a.i./ha
Source text: (§1) A synergistic effect is present in the case of herbicides whenever the herbicidal action of the active ingredient combination is greater than that of the individual active ingredients applied.
(§2) The anticipated action for a given combination of two herbicides can be calculated as follows (cf. COLBY, S. R.: “Calculating synergistic and antagonistic responses of herbicide combinations”, Weeds 15, pages 20-22, 1967):
(§3) If • X=% damage by herbicide A (active ingredient of formula I) at p kg/ha application rate • and • Y=% damage by herbicide B (active ingredient of Formula II) at q kg/ha application rate • and • E=the expected damage of the herbicides A and B at p and q kg/ha application rate, • then E=X+Y−(X*Y/100).

Amaranthus rudis = test: Herbicidal action against Amaranthus rudis, single ingredients and combinations, with Colby expected action
Source text: as §1, §2, §3

Alopecurus myosuroides = test: Herbicidal action against Alopecurus myosuroides, single ingredients and combinations, with Colby expected action
Source text: as §1, §2, §3

Structure (SMILES): CS(=O)(=O)c1ccc(C(=O)C2C(=O)CCCC2=O)c(Cl)c1COCC1CCCO1 (centres unmarked) [Compound (B.7)]
- Action against Galium aparine (%) (Galium aparine): 0%
- Action against Amaranthus rudis (%) (Amaranthus rudis; Table A-2, application rate 3.75 g a.i./ha): 35%
- Action against Amaranthus rudis (%) (Amaranthus rudis; Table A-4, application rate 7.5 g a.i./ha): 0%
- Action against Alopecurus myosuroides (%) (Alopecurus myosuroides; Table A-1, application rate 3.75 g a.i./ha): 0%
- Action against Alopecurus myosuroides (%) (Alopecurus myosuroides; Table A-3 (second), application rate 7.5 g a.i./ha): 0%
